Some results are limits rather than exact numbers.

This test addresses T1, PDE5A1 (Homo sapiens, UniProt O76074).
T1 construct: from tissue; host or cells: human platelets from fresh donor blood (10,000 x g supernatant of sonicated lysate)
Kind of test: Inhibition of type 5 phosphodiesterase (PDE5) activity, modified SPA test with human platelet lysate. The settings on record: 0.5 μM cGMP, read-out: PDE5A1 inhibitory values [measured as −log IC50 (mol/l)] (converted). The class given is biochemical. The protocol:
Method for Measuring Inhibition of the Type 5 Phosphodiesterase (PDE5) Activity:
As a source for human PDE5, platelets are used. For that purpose, 150 ml fresh blood from human donors anticoagulated with citrate [final concentration 0.3% (w/v)] is centrifuged at 200 g for 10 min to obtain the so-called platelet-rich-plasma (PRP) as a supernatant. 1/10 volume of ACD solution (85 mM Na3-citrate, 111 mM D-glucose, 71 mM citric acid, pH 4.4) is added to 9/10 volume of PRP. After centrifugation (1,400 g, 10 min) the cell pellet is resuspended in 3 ml homogenization buffer (NaCl 140 mM, KCl 3.8 mM, EGTA (ethylene glycol tetraacetic acid) 1 mM, MgCl2 1 mM, Tris-HCl 20 mM, beta-mercaptoethanol 1 mM, pH 8.2) plus protease-inhibitor mix giving rise to the final concentrations of 0.5 mM Pefablock (Roche), 10 μM Leupeptin, 5 μM Trypsininhibitor, 2 mM Benzamidin and 10 μM Pepstatin A. The suspension is sonified and thereafter centrifuged for 15 min at 10,000 g. The resulting supernatant (platelet lysate) is used for enzymatic testings.
PDE5A1 activity is inhibited by the compounds of the present subject matter in a modified SPA (scintillation proximity assay) test, supplied by Amersham Biosciences (see procedural instructions “phosphodiesterase [3H]cAMP SPA enzyme assay, code TRKQ 7090”), carried out in 96-well microtitre plates (MTP's). The test volume is 100 μl and contains 20 mM Tris buffer (pH 7.4), 0.1 mg of BSA (bovine serum albumin)/ml, 5 mM Mg^2+, 1 μM motapizone, 10 nM PDE2 inhibitor 2-(3,4-dimethoxybenzyl)-7-[(1R,2R)-2-hydroxy-1-(2-phenylethyl)propyl]-5-methylimidazo[5,1-f][1,2,4]triazin-4(3H)-one, 0.5 μM cGMP (cyclic guanosine monophosphate) (including about 50,000 cpm of [3H]cGMP as a tracer), 1 μl of the respective compound dilution in dimethylsulfoxide (DMSO) and sufficient PDE5-containing platelet lysat (10,000×g supernatant, see above) to ensure that 10-20 wt % of the cGMP is converted under the said experimental conditions. […] After a preincubation of 5 min at 37° C., the reaction is started by adding the substrate (cGMP) and the assay is incubated for a further 15 min; after that, it is stopped by adding SPA beads (50 μl). In accordance with the manufacturer's instructions, the SPA beads had previously been resuspended in water, but are then diluted 1:3 (v/v) in water; the diluted solution also contains 3 mM […] (IBMX) to ensure a complete PDE activity stop. After the beads have been sedimented (>30 min), the MTP's are analyzed in commercially available luminescence detection devices. The corresponding IC50 values of the compounds for the inhibition of PDE activity are determined from the concentration-effect curves by means of non-linear regression.
Take `COCC(=O)N[C@H]1CC[C@@H](NC(=O)c2c(C)[nH]c3c(-c4c(OCC5CC5)ccc5c4OCO5)ncnc23)CC1` [Example E11, 4-[5-(Cyclopropylmethoxy)-1,3-benzodioxol-4-yl]-N-{cis-4-[(methoxyacetyl)amino]cyclohexyl}-6-methyl-5H-pyrrolo[3,2-d]pyrimidine-7-carboxamide]: the IC50 is below 1 nM.
The result for `COCC(=O)N1CC[C@H](NC(=O)c2c(C)[nH]c3c(-c4ccc(F)cc4OCC4CC4)ncnc23)[C@@H](O)C1` (relative stereo) [Example E36, 4-[2-(Cyclopropylmethoxy)-4-fluorophenyl]-N-[(3S*,4S*)-3-hydroxy-1-(methoxyacetyl)piperidin-4-yl]-6-methyl-5H-pyrrolo[3,2-d]pyrimidine-7-carboxamide] reads 1 to 10 nM; that for `COc1ccc(-c2ncnc3c(C(=O)N[C@H]4CC[C@H](NC(=O)[C@H](C)O)CC4)c(C)[nH]c23)c(OCC2CC2)c1` [Example F36, 4-[2-(Cyclopropylmethoxy)-4-methoxyphenyl]-N-(trans-4-{[(2S)-2-hydroxypropanoyl]amino}cyclohexyl)-6-methyl-5H-pyrrolo[3,2-d]pyrimidine-7-carboxamide], below 1 nM.
As for `CC(=O)N1C[C@@H](O)[C@H](NC(=O)c2c(C)[nH]c3c(-c4c(OCC5CC5)ccc5c4OCO5)ncnc23)C1` (relative stereo) [Example E16, N-[(3R*,4R*)-1-acetyl-4-hydroxypyrrolidin-3-yl]-4-[5-(cyclopropylmethoxy)-1,3-benzodioxol-4-yl]-6-methyl-5H-pyrrolo[3,2-d]pyrimidine-7-carboxamide], the IC50 was below 1 nM.
Next, `COc1cc(OCC2CC2)c(-c2ncnc3c(C(=O)N[C@@H]4CN(C(=O)[C@H](C)O)C[C@H]4O)c(C)[nH]c23)cc1F` (relative stereo) [Example F118, 4-[2-(Cyclopropylmethoxy)-5-fluoro-4-methoxyphenyl]-N-{(3R*,4R*)-4-hydroxy-1-[(2S)-2-hydroxypropanoyl]pyrrolidin-3-yl}-6-methyl-5H-pyrrolo[3,2-d]pyrimidine-7-carboxamide]: below 1 nM; `CCOC(=O)N1CCC(NC(=O)c2c(C)[nH]c3c(-c4c(OCC5CC5)ccc5c4OCO5)ncnc23)CC1` [Example E4, Ethyl 4-[({4-[5-(cyclopropylmethoxy)-1,3-benzodioxol-4-yl]-6-methyl-5H-pyrrolo[3,2-d]pyrimidin-7-yl}carbonyl)amino]piperidine-1-carboxylate]: below 1 nM; `COc1cc(OCC2CC2)c(-c2ncnc3c(C(=O)NC4CCN(C(=O)CO)CC4)c(C)[nH]c23)cc1F` [Example F83, 4-[2-(Cyclopropylmethoxy)-5-fluoro-4-methoxyphenyl]-N-(1-glycoloylpiperidin-4-yl)-6-methyl-5H-pyrrolo[3,2-d]pyrimidine-7-carboxamide]: below 1 nM.
Next, `CCOC(=O)N[C@H]1CC[C@@H](NC(=O)c2c(C)[nH]c3c(-c4cc(F)c(OC)cc4OCC4CC4)ncnc23)CC1` [Example E141, Ethyl {cis-4-[({4-[2-(cyclopropylmethoxy)-5-fluoro-4-methoxyphenyl]-6-methyl-5H-pyrrolo[3,2-d]pyrimidin-7-yl}carbonyl)amino]cyclohexyl}carbamate]: below 1 nM; `CCOC(=O)N1CCC(NC(=O)c2c(C)[nH]c3c(-c4cc(OC)c(F)cc4OCC4CC4)ncnc23)CC1` [Example E105, Ethyl 4-[({4-[2-(cyclopropylmethoxy)-4-fluoro-5-methoxyphenyl]-6-methyl-5H-pyrrolo[3,2-d]pyrimidin-7-yl}carbonyl)amino]piperidine-1-carboxylate]: below 1 nM.
In the case of `COCC(=O)N[C@H]1CC[C@@H](NC(=O)c2c(C)[nH]c3c(-c4ccc(F)cc4OCC4CC4)ncnc23)CC1` [Example E27, 4-[2-(Cyclopropylmethoxy)-4-fluorophenyl]-N-{cis-4-[(methoxyacetyl)amino]cyclohexyl}-6-methyl-5H-pyrrolo[3,2-d]pyrimidine-7-carboxamide], the IC50 is below 1 nM.
Regarding `Cc1cc(-c2ncnc3c(C(=O)N[C@H]4CC[C@@H](NC(=O)CO)CC4)c(C)[nH]c23)c(OCC2CC2)cc1F` [Example F79, 4-[2-(Cyclopropylmethoxy)-4-fluoro-5-methylphenyl]-N-{cis-4-[(hydroxyacetyl)amino]cyclohexyl}-6-methyl-5H-pyrrolo[3,2-d]pyrimidine-7-carboxamide], the IC50 was below 1 nM.
Next, `COCC(=O)N1CCC(NC(=O)c2c(C)[nH]c3c(-c4cc(F)c(OC)cc4OCC4CC4)ncnc23)CC1` [Example E133, 4-[2-(Cyclopropylmethoxy)-5-fluoro-4-methoxyphenyl]-N-[1-(methoxyacetyl)piperidin-4-yl]-6-methyl-5H-pyrrolo[3,2-d]pyrimidine-7-carboxamide]: below 1 nM; `COc1cc(OCC2CC2)c(-c2ncnc3c(C(=O)N[C@@H]4CCN(C(=O)CO)C[C@H]4O)c(C)[nH]c23)cc1F` (relative stereo) [Example F89, 4-[2-(cyclopropylmethoxy)-5-fluoro-4-methoxyphenyl]-N-[(3R*,4R*)-3-hydroxy-1-(hydroxyacetyl)piperidin-4-yl]-6-methyl-5H-pyrrolo[3,2-d]pyrimidine-7-carboxamide]: below 1 nM.
Next, `COc1ccc(-c2ncnc3c(C(=O)N[C@H]4CC[C@@H](NC(C)=O)CC4)c(C)[nH]c23)c(OCC2CC2)c1` [Example E59, N-(cis-4-acetamidocyclohexyl)-4-[2-(cyclopropylmethoxy)-4-methoxyphenyl]-6-methyl-5H-pyrrolo[3,2-d]pyrimidine-7-carboxamide]: below 1 nM; `CCC(=O)N1CC[C@@H](NC(=O)c2c(C)[nH]c3c(-c4c(OCC5CC5)ccc5c4OCO5)ncnc23)C1` [Example E14, 4-[5-(Cyclopropylmethoxy)-1,3-benzodioxol-4-yl]-6-methyl-N-[(3R)-1-propionylpyrrolidin-3-yl]-5H-pyrrolo[3,2-d]pyrimidine-7-carboxamide]: below 1 nM.
`Cc1cc(-c2ncnc3c(C(=O)NC4CCN(C(=O)[C@H](C)O)CC4)c(C)[nH]c23)c(OCC2CC2)cc1F` [Example F76, 4-[2-(Cyclopropylmethoxy)-4-fluoro-5-methylphenyl]-N-{1-[(2S)-2-hydroxypropanoyl]piperidin-4-yl}-6-methyl-5H-pyrrolo[3,2-d]pyrimidine-7-carboxamide]: the IC50 was below 1 nM.
Next, `COCC(=O)N[C@H]1CC[C@H](NC(=O)c2c(C)[nH]c3c(-c4cc(C)c(F)cc4OCC4CC4)ncnc23)CC1` [Example E124, 4-[2-(Cyclopropylmethoxy)-4-fluoro-5-methylphenyl]-N-{trans-4-[(methoxyacetyl)amino]cyclohexyl}-6-methyl-5H-pyrrolo[3,2-d]pyrimidine-7-carboxamide]: below 1 nM; `CCc1ccc(OCC2CC2)c(-c2ncnc3c(C(=O)NC4CCN(C(=O)CO)CC4)c(C)[nH]c23)c1` [Example F91]: below 1 nM; `COc1cc(-c2ncnc3c(C(=O)N[C@H]4CC[C@@H](NC(=O)CO)CC4)c(C)[nH]c23)c(OCC2CC2)cc1F` [Example F69, 4-[2-(Cyclopropylmethoxy)-4-fluoro-5-methoxyphenyl]-N-[cis-4-(glycoloylamino)cyclohexyl]-6-methyl-5H-pyrrolo[3,2-d]pyrimidine-7-carboxamide]: below 1 nM.
The result for `COc1cc(-c2ncnc3c(C(=O)N[C@@H]4CCN(C(C)=O)C4)c(C)[nH]c23)c(OCC2CC2)cc1F` [Example E179, N-[(3R)-1-Acetylpyrrolidin-3-yl]-4-[2-(cyclopropylmethoxy)-4-fluoro-5-methoxyphenyl]-6-methyl-5H-pyrrolo[3,2-d]pyrimidine-7-carboxamide] reads below 1 nM.
Next, `CCC(=O)N1CCC(NC(=O)c2c(C)[nH]c3c(-c4c(OCC5CC5)ccc5c4OCO5)ncnc23)CC1` [Example E2, 4-[5-(Cyclopropylmethoxy)-1,3-benzodioxol-4-yl]-6-methyl-N-(1-propionylpiperidin-4-yl)-5H-pyrrolo[3,2-d]pyrimidine-7-carboxamide]: below 1 nM.
